# Data published in patent US20200339625A1, “NOVEL RADIOMETAL-BINDING COMPOUNDS FOR DIAGNOSIS OR TREATMENT OF PROSTATE SPECIFIC MEMBRANE ANTIGEN-EXPRESSING CANCER” (PROVINCIAL HEALTH SERVICES AUTHORITY, priority 2017, published 2020).
# Columns and labels:
# [1] = tested on: mice bearing PSMA-expressing LNCAP cancer xenografts; assay: Biodistribution of 68Ga-labeled compounds; assay type: in vivo
# Protocol: (§1) Imaging and biodistribution experiments were performed using NODSCID 1L2RyKO male mice. Mice were anesthetized by inhalation with 2% isoflurane in oxygen, and implanted subcutaneously with 1×10^7 LNCaP cells behind left shoulder. Mice were imaged or used in biodistribution studies when the tumor grew up to reach 5-8 mm in diameter during 5-6 weeks.
# For biodistribution studies, the mice were injected with the radiotracer as described above. At predetermined time points (1 or 3 h), the mice was anesthetized with 2% isoflurane inhalation, and euthanized by CO2 inhalation. Blood was withdrawn immediately from the heart, and the organs/tissues of interest were collected. The collected organs/tissues were weighed and counted using an automatic gamma counter. The uptake in each organ/tissue was normalized to the injected dose using a standard curve, and expressed as the percentage of the injected dose per gram of tissue (% ID/g).
# [2] = tested on: mice bearing LNCaP tumor xenografts; assay: PET/CT imaging of 68Ga-labeled compounds; assay type: in vivo; conditions: PET/CT images
# Protocol: 2.17 PET/CT Imaging and Biodistribution
# as §1
# PET imaging experiments were conducted using Siemens Inveon micro PET/CT scanner. Each tumor bearing mouse was injected 6-8 MBq of 68Ga-labeled tracer through the tail vein under anesthesia (2% isoflurane in oxygen). The mice were allowed to recover and roam freely in their cage. After 50 min, the mice were sedated again with 2% isoflurane in oxygen inhalation and positioned in the scanner. A 10-min CT scan was conducted first for localization and attenuation correction after segmentation for reconstructing the PET images. Then, a 10-min static PET imaging was performed to determined uptake in tumor and other organs. The mice were kept warm by a heating pad during acquisition. For imaging studies acquired at 3 h post-injection (p.i.), the mice were placed in the micro PET/CT scanner at 170 min p.i. Then, the CT acquisitions were conducted as described above, a 15-min static PET imaging was performed to determined uptake in tumor and other organs.
structure (smiles),measurement,setting,value
O=C([O-])CN1CCN(CC(=O)[O-])CCN(CC(=O)NCCCC[C@H](NC(=O)CNC(=O)CCCc2ccc(I)cc2)C(=O)NC[C@H]2CC[C@H](C(=O)N[C@@H](Cc3ccc4ccccc4c3)C(=O)NCCCC[C@H](NC(=O)N[C@@H](CCC(=O)O)C(=O)O)C(=O)O)CC2)CCN(CC(=O)[O-])CC1.[68Ga+3] [^68Ga-HTK03024],Adrenal glands uptake,[1]; 1 h post-injection,4.32 ± 0.25 % ID/g
same,Blood uptake,[1]; 1 h post-injection,27.0 ± 5.63 % ID/g
same,Bone uptake,[1]; 1 h post-injection,1.26 ± 0.08 % ID/g
same,Brain uptake,[1]; 1 h post-injection,0.31 ± 0.04 % ID/g
same,Fat uptake,[1]; 1 h post-injection,1.83 ± 0.44 % ID/g
same,Heart uptake,[1]; 1 h post-injection,6.53 ± 1.30 % ID/g
same,Intestine uptake,[1]; 1 h post-injection,1.86 ± 0.06 % ID/g
same,Kidneys uptake,[1]; 1 h post-injection,9.11 ± 1.06 % ID/g
same,Lacrimal uptake,[1]; 1 h post-injection,0.93 ± 0.36 % ID/g
same,Liver uptake,[1]; 1 h post-injection,3.71 ± 0.38 % ID/g
same,Lungs uptake,[1]; 1 h post-injection,9.51 ± 0.55 % ID/g
same,Muscle uptake,[1]; 1 h post-injection,1.10 ± 0.18 % ID/g
same,Pancreas uptake,[1]; 1 h post-injection,1.86 ± 0.04 % ID/g
same,Salivary uptake,[1]; 1 h post-injection,3.31 ± 0.79 % ID/g
same,Seminal uptake,[1]; 1 h post-injection,1.27 ± 0.18 % ID/g
same,Spleen uptake,[1]; 1 h post-injection,2.72 ± 0.69 % ID/g
same,Stomach uptake,[1]; 1 h post-injection,0.64 ± 0.05 % ID/g
same,Tail uptake,[1]; 1 h post-injection,7.58 ± 4.49 % ID/g
same,Testes uptake,[1]; 1 h post-injection,2.98 ± 0.30 % ID/g
same,Thyroid uptake,[1]; 1 h post-injection,4.39 ± 0.01 % ID/g
same,Tumor uptake,[1]; 1 h post-injection,7.34 ± 0.10 % ID/g
same,Tumor:Blood ratio,[1]; 1 h post-injection,0.28 ± 0.05
same,Tumor:Muscle ratio,[1]; 1 h post-injection,6.74 ± 1.00
same,Tumor:kidney ratio,[1]; 1 h post-injection,0.81 ± 0.11
same,Urine uptake,[1]; 1 h post-injection,1.48 ± 0.71 % ID/g
same,Adrenal glands uptake,[1]; 3 h post-injection,6.37 ± 1.54 % ID/g
same,Blood uptake,[1]; 3 h post-injection,23.9 ± 1.03 % ID/g
same,Bone uptake,[1]; 3 h post-injection,1.66 ± 0.39 % ID/g
same,Brain uptake,[1]; 3 h post-injection,0.34 ± 0.02 % ID/g
same,Fat uptake,[1]; 3 h post-injection,3.53 ± 1.48 % ID/g
same,Heart uptake,[1]; 3 h post-injection,5.56 ± 0.43 % ID/g
same,Intestine uptake,[1]; 3 h post-injection,1.66 ± 0.14 % ID/g
same,Kidneys uptake,[1]; 3 h post-injection,12.3 ± 0.86 % ID/g
same,Lacrimal uptake,[1]; 3 h post-injection,3.57 ± 1.56 % ID/g
same,Liver uptake,[1]; 3 h post-injection,3.86 ± 0.63 % ID/g
same,Lungs uptake,[1]; 3 h post-injection,11.6 ± 0.82 % ID/g
same,Muscle uptake,[1]; 3 h post-injection,1.55 ± 0.15 % ID/g
same,Pancreas uptake,[1]; 3 h post-injection,1.86 ± 0.20 % ID/g
same,Salivary uptake,[1]; 3 h post-injection,4.66 ± 0.58 % ID/g
same,Seminal uptake,[1]; 3 h post-injection,1.63 ± 0.13 % ID/g
same,Spleen uptake,[1]; 3 h post-injection,2.62 ± 0.93 % ID/g
same,Stomach uptake,[1]; 3 h post-injection,0.70 ± 0.10 % ID/g
same,Tail uptake,[1]; 3 h post-injection,4.03 ± 0.43 % ID/g
same,Testes uptake,[1]; 3 h post-injection,3.07 ± 0.20 % ID/g
same,Thyroid uptake,[1]; 3 h post-injection,4.19 ± 0.48 % ID/g
same,Tumor uptake,[1]; 3 h post-injection,15.0 ± 2.19 % ID/g
same,Tumor:Blood ratio,[1]; 3 h post-injection,0.63 ± 0.11
same,Tumor:Muscle ratio,[1]; 3 h post-injection,9.69 ± 1.51
same,Tumor:kidney ratio,[1]; 3 h post-injection,1.21 ± 0.10
same,Urine uptake,[1]; 3 h post-injection,3.68 ± 1.74 % ID/g
CCCCCCC(NC(=O)C1CCC(CNC(=O)CN2CCN(CC(=O)[O-])CCN(CC(=O)[O-])CCN(CC(=O)[O-])CC2)CC1)C(=O)NCCCCC(NC(=O)NC(CCC(=O)O)C(=O)O)C(=O)O.[68Ga+3] (stereo not shown) [^68Ga-HTK03026],excretion pathway,[2],excreted mainly via the renal pathway
same,tumor uptake (qualitative comparison),[2]; compounds of FIG. 13,comparable
same,Adrenal glands uptake,[1]; 1 h post-injection,1.84 ± 0.95 % ID/g
same,Blood uptake,[1]; 1 h post-injection,0.70 ± 0.19 % ID/g
same,Bone uptake,[1]; 1 h post-injection,0.54 ± 0.20 % ID/g
same,Brain uptake,[1]; 1 h post-injection,0.06 ± 0.02 % ID/g
same,Fat uptake,[1]; 1 h post-injection,0.45 ± 0.11 % ID/g
same,Heart uptake,[1]; 1 h post-injection,0.30 ± 0.06 % ID/g
same,Intestine uptake,[1]; 1 h post-injection,0.29 ± 0.06 % ID/g
same,Kidneys uptake,[1]; 1 h post-injection,68.5 ± 28.2 % ID/g
same,Lacrimal uptake,[1]; 1 h post-injection,1.33 ± 0.90 % ID/g
same,Liver uptake,[1]; 1 h post-injection,0.24 ± 0.06 % ID/g
same,Lungs uptake,[1]; 1 h post-injection,0.82 ± 0.26 % ID/g
same,Muscle uptake,[1]; 1 h post-injection,0.28 ± 0.13 % ID/g
same,Pancreas uptake,[1]; 1 h post-injection,0.71 ± 1.04 % ID/g
same,Salivary uptake,[1]; 1 h post-injection,0.83 ± 0.22 % ID/g
same,Seminal uptake,[1]; 1 h post-injection,0.43 ± 0.31 % ID/g
same,Spleen uptake,[1]; 1 h post-injection,1.34 ± 0.54 % ID/g
same,Stomach uptake,[1]; 1 h post-injection,0.10 ± 0.03 % ID/g
same,Tail uptake,[1]; 1 h post-injection,0.90 ± 0.56 % ID/g
same,Testes uptake,[1]; 1 h post-injection,0.35 ± 0.22 % ID/g
same,Thyroid uptake,[1]; 1 h post-injection,0.35 ± 0.08 % ID/g
same,Tumor uptake,[1]; 1 h post-injection,12.5 ± 2.90 % ID/g
same,Tumor:Blood ratio,[1]; 1 h post-injection,18.6 ± 5.54
same,Tumor:Muscle ratio,[1]; 1 h post-injection,52.8 ± 24.9
same,Tumor:kidney ratio,[1]; 1 h post-injection,0.22 ± 0.15
same,Urine uptake,[1]; 1 h post-injection,575 ± 245 % ID/g
Nc1ccc(CCCC(=O)NCC(=O)N[C@@H](CCCCNC(=O)CN2CCN(CC(=O)[O-])CCN(CC(=O)[O-])CCN(CC(=O)[O-])CC2)C(=O)NC[C@H]2CC[C@H](C(=O)N[C@@H](Cc3ccc4ccccc4c3)C(=O)NCCCC[C@H](NC(=O)N[C@@H](CCC(=O)O)C(=O)O)C(=O)O)CC2)cc1.[68Ga+3] [^68Ga-HTK03087],Adrenal glands uptake,[1]; 1 h post-injection,2.95 ± 0.92 % ID/g
same,Blood uptake,[1]; 1 h post-injection,1.74 ± 0.11 % ID/g
same,Bone uptake,[1]; 1 h post-injection,0.16 ± 0.02 % ID/g
same,Brain uptake,[1]; 1 h post-injection,0.04 ± 0.01 % ID/g
same,Fat uptake,[1]; 1 h post-injection,0.77 ± 0.14 % ID/g
same,Heart uptake,[1]; 1 h post-injection,0.52 ± 0.07 % ID/g
same,Intestine uptake,[1]; 1 h post-injection,0.32 ± 0.06 % ID/g
same,Kidneys uptake,[1]; 1 h post-injection,102 ± 8.91 % ID/g
same,Lacrimal uptake,[1]; 1 h post-injection,0.06 ± 0.05 % ID/g
same,Liver uptake,[1]; 1 h post-injection,0.44 ± 0.06 % ID/g
same,Lungs uptake,[1]; 1 h post-injection,1.75 ± 0.09 % ID/g
same,Muscle uptake,[1]; 1 h post-injection,0.31 ± 0.05 % ID/g
same,Pancreas uptake,[1]; 1 h post-injection,0.45 ± 0.02 % ID/g
same,Salivary uptake,[1]; 1 h post-injection,1.76 ± 0.16 % ID/g
same,Seminal uptake,[1]; 1 h post-injection,2.40 ± 2.83 % ID/g
same,Spleen uptake,[1]; 1 h post-injection,2.42 ± 0.79 % ID/g
same,Stomach uptake,[1]; 1 h post-injection,0.14 ± 0.05 % ID/g
same,Tail uptake,[1]; 1 h post-injection,0.91 ± 0.12 % ID/g
same,Testes uptake,[1]; 1 h post-injection,0.48 ± 0.06 % ID/g
same,Thyroid uptake,[1]; 1 h post-injection,0.74 ± 0.04 % ID/g
same,Tumor uptake,[1]; 1 h post-injection,20.7 ± 3.79 % ID/g
same,Tumor:Blood ratio,[1]; 1 h post-injection,11.9 ± 1.92
same,Tumor:Muscle ratio,[1]; 1 h post-injection,66.6 ± 9.63
same,Tumor:kidney ratio,[1]; 1 h post-injection,0.20 ± 0.02
same,Urine uptake,[1]; 1 h post-injection,196 ± 50.9 % ID/g
same,Adrenal glands uptake,[1]; 3 h post-injection,0.90 ± 0.36 % ID/g
same,Blood uptake,[1]; 3 h post-injection,0.52 ± 0.08 % ID/g
same,Bone uptake,[1]; 3 h post-injection,0.03 ± 0.03 % ID/g
same,Brain uptake,[1]; 3 h post-injection,0.01 ± 0.00 % ID/g
same,Fat uptake,[1]; 3 h post-injection,0.40 ± 0.11 % ID/g
same,Heart uptake,[1]; 3 h post-injection,0.16 ± 0.03 % ID/g
same,Intestine uptake,[1]; 3 h post-injection,0.23 ± 0.10 % ID/g
same,Kidneys uptake,[1]; 3 h post-injection,56.1 ± 20.3 % ID/g
same,Lacrimal uptake,[1]; 3 h post-injection,0.00 ± 0.00 % ID/g
same,Liver uptake,[1]; 3 h post-injection,0.31 ± 0.19 % ID/g
same,Lungs uptake,[1]; 3 h post-injection,0.53 ± 0.12 % ID/g
same,Muscle uptake,[1]; 3 h post-injection,0.08 ± 0.02 % ID/g
same,Pancreas uptake,[1]; 3 h post-injection,0.14 ± 0.03 % ID/g
same,Salivary uptake,[1]; 3 h post-injection,0.47 ± 0.07 % ID/g
same,Seminal uptake,[1]; 3 h post-injection,1.44 ± 3.04 % ID/g
same,Spleen uptake,[1]; 3 h post-injection,0.80 ± 0.31 % ID/g
same,Stomach uptake,[1]; 3 h post-injection,0.07 ± 0.04 % ID/g
same,Tail uptake,[1]; 3 h post-injection,0.27 ± 0.05 % ID/g
same,Testes uptake,[1]; 3 h post-injection,0.17 ± 0.05 % ID/g
same,Thyroid uptake,[1]; 3 h post-injection,0.24 ± 0.05 % ID/g
same,Tumor uptake,[1]; 3 h post-injection,20.4 ± 5.92 % ID/g
same,Tumor:Blood ratio,[1]; 3 h post-injection,39.2 ± 8.42
same,Tumor:Muscle ratio,[1]; 3 h post-injection,254 ± 88.9
same,Tumor:kidney ratio,[1]; 3 h post-injection,0.40 ± 0.16
same,Urine uptake,[1]; 3 h post-injection,339 ± 355 % ID/g
